Measured values published in PubChem BioAssay (NCI).
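The compound was tested at five concentrations on cells cultured in 96-well plates, with a 48-hour exposure period. GI50 = concentration required for 50% inhibition of growth. The concentration for full growth arrest is given as TGI.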

Assays:
Assay in all cases: NCI anticancer screen, dose series, 48 h
[1] = tested on: T-47D breast
[2] = tested on: HS 578T breast
[3] = tested on: MDA-MB-435
[4] = tested on: UACC-257 melanoma
[5] = tested on: SR leukemia
[6] = tested on: HOP-92 NSCLC
[7] = tested on: UO-31 renal
[8] = tested on: CCRF-CEM leukemia
[9] = tested on: SK-OV-3 ovarian
[10] = tested on: EKVX NSCLC
[11] = tested on: U251 CNS
[12] = tested on: SK-MEL-5 melanoma
[13] = tested on: A498 renal
[14] = tested on: RXF 393 renal
[15] = tested on: MDA-MB-231 breast
[16] = tested on: SN12C renal
[17] = tested on: CAKI-1 renal
[18] = tested on: SK-MEL-28 melanoma
[19] = tested on: OVCAR-4 ovarian
[20] = tested on: HOP-62 NSCLC
[21] = tested on: 786-0 renal
[22] = tested on: IGROV1 ovarian
[23] = tested on: HL-60(TB) leukemia
[24] = tested on: NCI-H460 lung
[25] = tested on: SK-MEL-2 melanoma
[26] = tested on: MALME-3M melanoma
[27] = tested on: RPMI-8226 leukemia
[28] = tested on: SF-539 CNS
[29] = tested on: HCT-15 colon
[30] = tested on: TK-10 renal
[31] = tested on: UACC-62 melanoma
[32] = tested on: OVCAR-8 ovarian
[33] = tested on: SF-295 CNS
[34] = tested on: HT29 colon
[35] = tested on: HCT-116 colon
[36] = tested on: BT-549 breast
[37] = tested on: OVCAR-3 ovarian
[38] = tested on: LOX IMVI melanoma
[39] = tested on: HCC-2998 colon
[40] = tested on: KM12 colon
[41] = tested on: ACHN renal
[42] = tested on: NCI-H522 lung
[43] = tested on: MCF7 breast
[44] = tested on: NCI/ADR-RES ovarian
[45] = tested on: DU-145 prostate
[46] = tested on: PC-3 prostate
[47] = tested on: OVCAR-5 ovarian
[48] = tested on: MOLT-4 leukemia
[49] = tested on: M14 melanoma
[50] = tested on: A549 NSCLC
[51] = tested on: SNB-19 CNS
[52] = tested on: K-562 leukemia

Work on `COc1ccc(-c2nc3cc(Cl)c(Cl)cc3n2CC(=O)N=Nc2c(O)[nH]c3ccc(Cl)cc23)cc1` yielded a GI50 [1] of 1710 nM, a TGI [1] of 3560 nM and a GI50 [2] of 2120 nM. The TGI [2] was 5530 nM, the GI50 [3] was 1740 nM and the TGI [3] was 3400 nM. It also gave a GI50 [4] of 1640 nM, a TGI [4] of 3290 nM and a GI50 [5] of 3030 nM. The TGI [5] was > 100000 nM, the GI50 [6] was 1160 nM and the TGI [6] was 2770 nM. For the same compound, the GI50 [7] was 1260 nM, the TGI [7] was 2530 nM and the GI50 [8] was 3930 nM. For the same compound, the TGI [8] was > 100000 nM, the GI50 [9] was 1640 nM and the TGI [9] was 3240 nM. It also gave a GI50 [10] of 2120 nM, a TGI [10] of 4940 nM and a GI50 [11] of 1690 nM. For the same compound, the TGI [11] was 3140 nM, the GI50 [12] was 2000 nM and the TGI [12] was 4040 nM. For the same compound, the GI50 [13] was 1910 nM, the TGI [13] was 3550 nM and the GI50 [14] was 1720 nM. For the same compound, the TGI [14] was 3170 nM, the GI50 [15] was 1850 nM and the TGI [15] was 3970 nM. For the same compound, the GI50 [16] was 1950 nM, the TGI [16] was 3760 nM and the GI50 [17] was 1500 nM. The TGI [17] was 2850 nM, the GI50 [18] was 1780 nM and the TGI [18] was 3250 nM. It also gave a GI50 [19] of 1740 nM, a TGI [19] of 3370 nM and a GI50 [20] of 1610 nM. For the same compound, the TGI [20] was 3160 nM, the GI50 [21] was 1800 nM and the TGI [21] was 3280 nM. It also gave a GI50 [22] of 1740 nM, a TGI [22] of 3460 nM and a GI50 [23] of 4870 nM. For the same compound, the TGI [23] was > 100000 nM, the GI50 [24] was 1860 nM and the TGI [24] was 3510 nM. It also gave a GI50 [25] of 1850 nM, a TGI [25] of 3620 nM and a GI50 [26] of 1760 nM. For the same compound, the TGI [26] was 3370 nM, the GI50 [27] was 2310 nM and the TGI [27] was 6540 nM. For the same compound, the GI50 [28] was 1710 nM, the TGI [28] was 3180 nM and the GI50 [29] was 1920 nM. For the same compound, the TGI [29] was 3880 nM, the GI50 [30] was 2860 nM and the TGI [30] was 7070 nM. For the same compound, the GI50 [31] was 1700 nM, the TGI [31] was 3390 nM and the GI50 [32] was 1760 nM. It also gave a TGI [32] of 3290 nM, a GI50 [33] of 1940 nM and a TGI [33] of 3600 nM. The GI50 [34] was 1830 nM, the TGI [34] was 3500 nM and the GI50 [35] was 1830 nM. The TGI [35] was 3350 nM, the GI50 [36] was 2510 nM and the TGI [36] was 6440 nM. It also gave a GI50 [37] of 1730 nM, a TGI [37] of 3200 nM and a GI50 [38] of 1780 nM. The TGI [38] was 3330 nM, the GI50 [39] was 1920 nM and the TGI [39] was 3560 nM. It also gave a GI50 [40] of 2150 nM, a TGI [40] of 5180 nM and a GI50 [41] of 1780 nM. It also gave a TGI [41] of 3200 nM, a GI50 [42] of 1730 nM and a TGI [42] of 3720 nM. It also gave a GI50 [43] of 1830 nM, a TGI [43] of 3620 nM and a GI50 [44] of 1840 nM. For the same compound, the TGI [44] was 3790 nM, the GI50 [45] was 1860 nM and the TGI [45] was 3500 nM. For the same compound, the GI50 [46] was 1680 nM, the TGI [46] was 3340 nM and the GI50 [47] was 1910 nM. The TGI [47] was 3780 nM, the GI50 [48] was 4440 nM and the TGI [48] was > 100000 nM. It also gave a GI50 [49] of 1810 nM, a TGI [49] of 3500 nM and a GI50 [50] of 1760 nM. The TGI [50] was 3530 nM, the GI50 [51] was 2000 nM and the TGI [51] was 4210 nM. For the same compound, the GI50 [52] was 2430 nM and the TGI [52] was 6220 nM.
